Experimental data as given in ChEMBL document CHEMBL1145735, “Synthesis and antitumor activity of novel C-8 ester derivatives of leinamycin” (Bioorg Med Chem Lett, 2003).

How the values were obtained:
[1] = system: Mus musculus; experiment: Antitumor activity against human Lu-65 tumor cells, at a dose of 18 mg/kg upon i.v. administration in nude mice; assay type: functional; settings: route intravenous
[2] = system: Mus musculus; experiment: Antitumor activity against human A-2780 tumor cells, at a dose of 18 mg/kg upon i.v. administration in nude mice; assay type: functional; settings: route intravenous
[3] = system: HeLa; experiment: In vitro antiproliferative activity against HeLa S3 cells.; assay type: functional, cell-based; settings: Homo sapiens
[4] = system: Mus musculus; experiment: In vivo antitumor activity against lymphocytic leukemia P388 in mice expressed as maximal increase in life span at an optimal dose of 16 mg/kg.; assay type: functional
[5] = system: Mus musculus; experiment: Antitumor activity against human HCT116 tumor cells, at a dose of 18 mg/kg upon i.v. administration in nude mice; assay type: functional; settings: route intravenous
[6] = system: Mus musculus; experiment: In vivo antitumor activity against murine sarcoma 180 cells at an optimal dose of 16 mg/kg.; assay type: functional
[7] = system: Mus musculus; experiment: Antitumor activity against human HCT116 tumor cells, at a dose of 8.0 mg/kg upon i.v. administration in nude mice; assay type: functional; settings: route intravenous
[8] = system: Mus musculus; experiment: Antitumor activity against human Lu-65 tumor cells, at a dose of 8.0 mg/kg upon i.v. administration in nude mice; assay type: functional; settings: route intravenous
[9] = system: Mus musculus; experiment: Antitumor activity against human A-2780 tumor cells, at a dose of 8.0 mg/kg upon i.v. administration in nude mice; assay type: functional; settings: route intravenous
[10] = system: Mus musculus; experiment: In vivo antitumor activity against murine sarcoma 180 cells at an optimal dose of 1 mg/kg.; assay type: functional

Row | Compound | T/C [1] | T/C [2] | IC50 [3] | ILS at 16 mg/kg [4] | T/C [5] | T/C [6] | T/C [7] | T/C [8] | T/C [9] | T/C [10]
1 | C/C1=C\[C@@H](OC(=O)CNC(=O)CCNC(=O)OCc2ccccc2)C(=O)/C=C/C=C/c2csc(n2)[C@@H](C)N2C(=O)C[C@@]([C@@](C)(O)C(=O)SCc3oc(=O)oc3C)(CC1)[S+]2[O-] (stereo partly specified) | 0.48 | 0.46 | 11 nM | 91% | 0.64 | 0.15 | – | – | – | –
2 | C/C1=C\[C@@H](O[C@H]2CCCCO2)C(=O)/C=C/C=Cc2csc(n2)[C@@H](C)N2C(=O)C[C@@]([C@@](C)(O)C(=O)SCc3oc(=O)oc3C)(CC1)[S+]2[O-] (stereo partly specified) | – | – | – | – | – | – | 0.48 | 0.33 | 0.43 | –
3 | COCCOCC(=O)O[C@@H]1/C=C(\C)CC[C@]2(CC(=O)N[C@@H](C)c3nc(cs3)/C=C\C=C\C1=O)[S+]([O-])SC(=O)[C@]2(C)O (stereo partly specified) | – | – | 26 nM | – | – | – | – | – | – | 0.72
